SMILES strings stand for the structures. Converted amounts (≈) assume the structure as drawn. “And” between values parts separate entries of the source, which are not always exact repeats. Equal entries are not always repeated.

The test system of one series is pERK1/2 T202/Y204. In words: CyTOF maximal inhibition in Undefined/Immature Myeloid cells: pERK1/2. It is filed as in vivo, human. An excerpt: Pharmacodynamic endpoints included the measurement of inhibition of pAXL, pERK, pAKT, pS6 and pSTAT1/3/5 in blast cells (defined as cells with abnormal surface marker expression as compared to healthy donor peripheral blood mononuclear cells and undefined/immature myeloid cells (defined as cells carrying myeloid markers but lacking distinguishing terminal differentiation markers). Mass cytometry time of flight (CyTOF) was used for the determination of the pharmacodynamic markers using a previously validated and tested panel of mass-tagged antibodies[39],[40]. The antibodies in the panel are listed in Supplementary Table 5. Briefly, fixed leukocytes from peripheral blood were barcoded using a 20-plex metal barcoding kit (Standard Biotools, Cell-ID 201060) according to manufacturer’s protocol, allowing all the samples from a single individual to be stained and analysed in parallel. All analysis runs included barcoded peripheral blood mononuclear cells (PBMCs) from at least one healthy donor and an identical barcoded reference sample (mix of PBMCs from six healthy donors). […]
For each population, marker, and sample, the 95th percentile of the non-transformed expression values was calculated. […]

A further series concerns Flt1. Set-up: method as in Investigator's Brochure (IB) version 5.0. The note with it: ref Investigator's Brochure (IB) version 5.0; cited from earlier work.
The next series relates to monkeys. The arrangement: method as in Investigator's Brochure (IB) version 5.0. The note with it: ref Investigator's Brochure (IB) version 5.0, cited from earlier work.

In the case of `Nc1nc(Nc2ccc3c(c2)CC[C@@H](N2CCCC2)CC3)nn1-c1cc2c(nn1)-c1ccccc1CCC2` [Bemcentinib], the EC50 in the series with pERK1/2 T202/Y204 (Homo sapiens, Undefined/Immature Myeloid cells, N = 12 patients, read-out: EC50 (± standard error), pERK1/2 T202/Y204 inhibition) worked out at 0.0873 ± 0.0017 µg/mL (≈ 0.172 µM). Also, the “Maximum inhibition (percent) pERK1/2 (T202/Y204)” value in the series with pERK1/2 T202/Y204 (Supplementary Figure 1c, individual patients) was 87.1% and 71.6% and 100% and 8.8% and 98.1% and 30.4% and 66.9% and 0% and 5.7% and 94.5% and 39.2% and 69.3%. Besides, the IC50 with Flt1 was 40 nM. In the series on monkeys (7.5 mg/kg and 15 mg/kg single oral), the “QTc change compared to vehicle control and pre-dose values” is recorded as “below 10%”. The Heart rate entry with monkeys (7.5 mg/kg – 60 mg/kg single oral) is listed as “recoverable, non-adverse decreases”. In the series on monkeys (highest dose level (60 mg/kg single oral)), the “Magnitude of the QTc effect” value is listed as 17%.

The term IC50 denotes the point on the concentration scale where inhibition reaches its midpoint.

These data come from PMC11930985 (Nature Communications, 2025).
